Source: PMC9367601 (Cancers, 2022)

The compounds below were run against T1, Epidermal Growth Factor Receptor (EGFR), extracellular domain (EGFR-ECD) (Homo sapiens, UniProt P00533) (assay: SPR competition: dose-dependent decrease of EGF binding to immobilized EGFR-ECD (no SPR value printed); the IC50 is from the PathHunter cell EGFR dimerization assay). Details: not given.
T1 construct: full-length EGFR in DiscoverX PathHunter enzyme-complementation cells, EGF-stimulated
Assay type: cell-based

T1 sequence (P00533 25-1210): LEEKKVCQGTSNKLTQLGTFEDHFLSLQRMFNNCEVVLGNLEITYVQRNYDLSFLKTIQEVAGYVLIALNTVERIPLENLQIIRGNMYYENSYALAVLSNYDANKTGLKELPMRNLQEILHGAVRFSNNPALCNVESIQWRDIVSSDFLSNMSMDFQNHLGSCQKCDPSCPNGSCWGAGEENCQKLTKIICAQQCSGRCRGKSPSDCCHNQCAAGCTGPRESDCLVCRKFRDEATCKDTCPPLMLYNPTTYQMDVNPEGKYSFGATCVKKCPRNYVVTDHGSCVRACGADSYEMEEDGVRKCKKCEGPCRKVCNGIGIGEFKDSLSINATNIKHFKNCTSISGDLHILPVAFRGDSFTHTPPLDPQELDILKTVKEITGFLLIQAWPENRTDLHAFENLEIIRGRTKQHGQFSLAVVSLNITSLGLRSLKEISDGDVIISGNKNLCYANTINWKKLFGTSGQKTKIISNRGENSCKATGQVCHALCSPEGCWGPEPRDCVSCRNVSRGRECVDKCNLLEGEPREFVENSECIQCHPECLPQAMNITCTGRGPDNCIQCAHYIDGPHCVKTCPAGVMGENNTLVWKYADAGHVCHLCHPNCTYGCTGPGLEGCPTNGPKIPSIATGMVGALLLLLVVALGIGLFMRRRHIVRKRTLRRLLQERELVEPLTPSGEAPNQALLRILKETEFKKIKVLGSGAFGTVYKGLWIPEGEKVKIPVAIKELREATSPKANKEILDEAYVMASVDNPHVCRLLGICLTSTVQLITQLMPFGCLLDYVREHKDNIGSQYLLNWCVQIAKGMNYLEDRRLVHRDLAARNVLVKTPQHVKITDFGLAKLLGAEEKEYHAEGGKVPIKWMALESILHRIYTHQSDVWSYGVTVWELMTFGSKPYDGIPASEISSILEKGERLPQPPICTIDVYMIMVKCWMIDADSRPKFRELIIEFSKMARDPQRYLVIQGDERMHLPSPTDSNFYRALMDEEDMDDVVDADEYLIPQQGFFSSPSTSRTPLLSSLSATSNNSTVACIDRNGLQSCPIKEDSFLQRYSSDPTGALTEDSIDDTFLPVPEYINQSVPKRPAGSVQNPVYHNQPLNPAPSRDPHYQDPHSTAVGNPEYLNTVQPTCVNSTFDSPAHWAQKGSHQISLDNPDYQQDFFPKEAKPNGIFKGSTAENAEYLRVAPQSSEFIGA

Compound	IC50 [µM]
O=C1Nc2ccc([N+](=O)[O-])cc2C1=Nc1cccc(C(F)(F)F)c1 [DSF-102]	13.2 ± 2.1

The compounds below were run against T1, Epidermal Growth Factor Receptor (EGFR), extracellular domain (EGFR-ECD) (assay: cell-based). Details: not given.
Parameters: DiscoverX PathHunter EGFR dimerization/activation assay, chemiluminescence
Description: The inhibition of the EGFR dimerization assay was conducted using the PathHunter kit following the producer instructions and with cetuximab as a positive control. For IC50 determination, the selected compounds were tested at different concentration (range 0.1–100 µM) and the IC50 values were calculated by the four parameters logistic (4-PL) model. Evaluation was based on means from at least four independent experiments. The discovery of orally available small molecules able to impair the EGFR activation targeting the extracellular domain could be of great interest for cancer treatment. To pursue this goal, a suitable high/medium throughput screening method is required. In this respect, a commercially available kit (PathHunter® from DiscoverX©; San Francisco, CA, USA) for the screening of compounds able to prevent EGFR activation (either dimerization or autophosphorylation) has been developed in recent years. This assay measures the chemiluminescent signal produced as a consequence of ligand-induced dimerization/activation of EGFR [16]. Our interest in kinase inhibitors and the readily availability of such kit prompted us to start a campaign for the discovery of small molecules targeting the extracellular domain of EGFR.

inhibition at 10 µM [%]	inhibition at 50 µM [%]	Compound
42 ± 5	42 ± 1	O=C(O)Cc1ccc(/N=C2/C(=O)Nc3ccccc32)cc1 [DSF067]
37 ± 5	56 ± 4	O=C(O)Cc1ccc(/N=C2/C(=O)Nc3ccc(Br)cc32)cc1 [DSF068]
0	0	CC(=O)Nc1ccc(/C=C2/N=C(c3cccc(C(=O)O)c3)OC2=O)cc1 [DSF071]
18 ± 5	34 ± 4	O=C1OC(c2ccccc2)=N/C1=C/c1ccc[nH]1 [DSF075]
7 ± 1	37 ± 4	CC(=O)Nc1ccc(/C=C2/N=C(c3cccnc3Cl)OC2=O)cc1 [DSF078]
3 ± 1	41 ± 2	COc1ccc([N+](=O)[O-])c(C2=NC(=Cc3ccc(NC(C)=O)cc3)C(=O)O2)c1 [DSF079]
0	19 ± 4	O=[N+]([O-])c1cc(Cl)ccc1S(=O)(=O)Nc1cccc(Cl)c1 [DSF086]
12 ± 2	19 ± 1	O=[N+]([O-])c1cc(Cl)ccc1S(=O)(=O)N1CCCCC1 [DSF090]

Further lines, the compound ahead of its results:

Compound	inhibition at 10 µM [%]	inhibition at 50 µM [%]
CCc1cnc(Oc2cccc(NC(=S)NC(=O)c3ccccc3)c2)nc1 [DSF065]	0	22 ± 5
CCc1cnc(Oc2cccc(NC(=O)NC(=O)c3ccccc3[N+](=O)[O-])c2)nc1 [DSF066]	0	0
O=C1Nc2ccccc2/C1=N\c1cccc(C(F)(F)F)c1 [DSF069]	27 ± 5	56 ± 2
COc1ccc(OC)c(/N=C2/C(=O)Nc3ccc(Br)cc32)c1 [DSF070]	20 ± 5	41 ± 1
COc1cc(/C=C2/N=C(c3ccccc3)OC2=O)ccc1OC(C)=O [DSF072]	16 ± 4	39 ± 2
CN(C)c1ccc(/C=C2/N=C(c3ccccc3)OC2=O)cc1 [DSF073]	23 ± 1	36 ± 3
O=C1OC(c2ccccc2)=N/C1=C/c1cnc2ccccc2c1 [DSF074]	10 ± 3	48 ± 2
COc1ccc(/C=C2/N=C(c3ccccc3)OC2=O)cc1 [DSF076]	25 ± 2	18 ± 4
CC(=O)n1cc(/C=C2/N=C(c3ccccc3)OC2=O)c2ccccc21 [DSF077]	7 ± 1	39 ± 1
CC(=O)Nc1ccc(C=C2N=C(c3ccc([N+](=O)[O-])cc3O)OC2=O)cc1 [DSF080]	11 ± 5	28 ± 3
O=C(O)Cc1ccc(S(=O)(=O)Nc2ccccc2)cc1 [DSF081]	21 ± 5	26 ± 1
O=C(O)c1ccc(NS(=O)(=O)c2ccc(Cl)cc2[N+](=O)[O-])cc1 [DSF084]	19 ± 2	29 ± 3
O=C(O)c1ccc(NS(=O)(=O)c2ccc(Cl)cc2[N+](=O)[O-])cc1O [DSF085]	0	36 ± 5
CCOC(=O)c1ccc(NS(=O)(=O)c2ccc(Cl)cc2[N+](=O)[O-])cc1 [DSF087]	2 ± 3	36 ± 4
COc1ccc(OC)c(NS(=O)(=O)c2ccc(Cl)cc2[N+](=O)[O-])c1 [DSF088]	0	22 ± 3
O=[N+]([O-])c1cc(Cl)ccc1S(=O)(=O)N1CCOCC1 [DSF089]	20 ± 5	22 ± 4

Same assay, conditions: inhibitor; % inhibition @ 10 uM, 10 µM

Compound	% inhibition @ 10 uM [%]
Cc1cccc(C)c1NS(=O)(=O)c1ccc(CC(=O)O)cc1 [DSF082]	16 ± 1
Cc1cccc(C)c1NS(=O)(=O)c1ccc(CC(=O)O)cc1 [DSF083]	36 ± 4

Same assay, conditions: inhibitor; % inhibition @ 50 uM, 50 µM

Compound	% inhibition @ 50 uM [%]
Cc1cccc(C)c1NS(=O)(=O)c1ccc(CC(=O)O)cc1 [DSF082]	19 ± 5
Cc1cccc(C)c1NS(=O)(=O)c1ccc(CC(=O)O)cc1 [DSF083]	49 ± 3

The compounds below were run against Epidermal Growth Factor Receptor (EGFR) (Homo sapiens, UniProt P00533) (assay: PathHunter cell-based EGFR dimerization assay, dose-response). Details: not given.
Sequence of Epidermal Growth Factor Receptor (EGFR) (P00533 25-1210): as above

Compound	IC50 [µM]
O=C1Nc2ccc(Br)cc2C1=Nc1cccc(C(F)(F)F)c1 [DSF-097]	38.8 ± 3.6
O=C1Nc2cc(Cl)c(F)cc2C1=Nc1cccc(C(F)(F)F)c1 [DSF-099]	27.7 ± 4.5
